Assay results published in PubChem BioAssay (NCI).
Several values for one entry are separate records, joined by “and”; a condition that tells them apart may be missing. Identical values can stand only once.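 Growth conditions: 96-well plates. Treatment: test compound, 48 hours, 5 concentrations. Analysis: linear interpolation between bracketing concentrations; unreached endpoints set to highest concentration. Abbreviation: GI50, concentration required for 50% inhibition of growth. TGI: concentration producing complete growth inhibition.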

Assays:
Experiment in all cases: NCI tumour cell line growth inhibition, 48 h
OVCAR-4 ovarian = tested on: OVCAR-4 ovarian
ACHN renal = tested on: ACHN renal
UO-31 renal = tested on: UO-31 renal
KM12 colon = tested on: KM12 colon
EKVX NSCLC = tested on: EKVX NSCLC
SK-MEL-2 melanoma = tested on: SK-MEL-2 melanoma
SK-MEL-28 melanoma = tested on: SK-MEL-28 melanoma
UACC-257 melanoma = tested on: UACC-257 melanoma
HL-60(TB) leukemia = tested on: HL-60(TB) leukemia

Row | SMILES | TGI (OVCAR-4 ovarian) | TGI (ACHN renal) | TGI (UO-31 renal) | TGI (KM12 colon) | TGI (EKVX NSCLC) | TGI (SK-MEL-2 melanoma) | TGI (SK-MEL-28 melanoma) [µM] | TGI (UACC-257 melanoma) | TGI (HL-60(TB) leukemia) | GI50 (OVCAR-4 ovarian) [µM] | GI50 (ACHN renal) [µM] | GI50 (UO-31 renal) [µM] | GI50 (KM12 colon) [µM] | GI50 (EKVX NSCLC) [µM] | GI50 (SK-MEL-2 melanoma) [µM] | GI50 (SK-MEL-28 melanoma) [µM] | GI50 (UACC-257 melanoma) [µM] | GI50 (HL-60(TB) leukemia) [µM]
1 | COC(=O)C1=C(c2ccc(Cl)cc2)C(O)N=C(NN)N1 (centres undefined) | > 100 µM | > 100 µM | > 100 µM | > 100 µM | > 100 µM | > 100 µM | > 100 | > 100 µM | > 100 µM |  |  |  |  |  |  |  |  | 
2 | CC1=C(C(=O)Nc2ccccc2C)C(c2ccccc2C)C(C(=O)Nc2ccccc2C)=C(C)N1 | 53.9 µM | 29.5 µM | 30.2 µM | 37.8 µM | 42.3 µM | 38.8 µM | 42.5 | 72.6 µM | 46.5 µM |  |  |  |  |  |  |  |  | 
3 | CC(=O)O/N=C/c1cc2c(cc1Br)OCO2 |  | > 349 µM |  | > 349 µM | > 349 µM | > 349 µM | > 349 | > 349 µM | > 349 µM |  |  |  |  |  |  |  |  | 
4 | COc1cc2c(cc1OCCCCCn1c3ccccc3c3ccccc31)N=C[C@@H]1CCCN1C2=O | 12.6 µM | 3.34 µM | 2.93 µM | 3.74 µM | 18.7 µM | 3.24 µM | 3.5 | 5.85 µM | 4.38 µM | 3.09 | 1.74 | 1.52 | 1.96 | 5.27 | 1.67 | 1.8 | 2.29 | 1.72
5 | O=C1NN=CN2C(=O)CCC12 (centres undefined) | > 100 µM | > 100 µM | > 100 µM | > 100 µM | > 100 µM | > 100 µM | > 100 | > 100 µM | > 100 µM |  |  |  |  |  |  |  |  | 
6 | NC(=O)N/N=C(\CCC(=O)N(Cc1ccccc1)Cc1ccccc1)CC(=O)c1ccc(F)cc1 | > 100 µM | > 100 µM | > 100 µM | > 100 µM | > 100 µM | > 100 µM | > 100 | > 100 µM | > 100 µM |  |  |  |  |  |  |  |  | 
7 | N#CC(C(=O)CCC(=O)Nc1ccc(Cl)c(Cl)c1)c1ccc(Cl)cc1 (centres undefined) | > 100 µM | > 100 µM | > 100 µM | > 100 µM | > 100 µM | > 100 µM | > 100 | > 100 µM | > 100 µM |  |  |  |  |  |  |  |  | 
8 | CCCCCCCCCCCCCCCCCc1nnc(N)o1 | > 100 µM | > 100 µM | > 100 µM | > 100 µM |  | > 100 µM | > 100 | > 100 µM | > 100 µM |  |  |  |  |  |  |  |  | 
9 | CC1CC(=O)c2c(ccc3c2C(=O)c2cccc(O)c2C3=O)C1 (centres undefined) | 25.3 µM |  | 24.2 µM | 26.7 µM | 28 µM | 22.6 µM | 26.6 | 19.2 µM | 18.1 µM |  |  |  |  |  |  |  |  | 
10 | O=C(CC(=O)c1ccccc1)C(=O)NC12CC3CC(CC(C3)C1)C2 | > 100 µM | > 100 µM | > 100 µM | > 100 µM | > 100 µM | > 100 µM | > 100 | > 100 µM | > 69.1 µM |  |  |  |  |  |  |  |  | 
11 | NS(=O)(=O)c1ccc(NC(=O)c2cccc3c(Nc4ccc(S(N)(=O)=O)cc4)c4ccccc4nc23)cc1 | 55.6 µM | > 100 µM | > 100 µM | 25.6 µM | > 100 µM | 82.3 µM | > 100 | > 100 µM | 96.8 µM |  |  |  |  |  |  |  |  | 
12 | CCOC(=O)c1cn(CC)c2cc3c(cc2c1=O)SCS3 | > 100 µM | > 100 µM | > 100 µM | > 100 µM | > 100 µM | > 100 µM | > 100 | > 100 µM | > 100 µM |  |  |  |  |  |  |  |  | 
13 | O=C1C=C(OCCCl)C(=O)c2c(O)ccc(O)c21 | 3.01 µM and 3.1 µM | 2.89 µM and 4.95 µM | 2.76 µM and 4.5 µM | 4.38 µM and 20.6 µM | 3.36 µM and 3.73 µM | 1.4 µM and 4.39 µM |  | 0.358 µM and 2.44 µM | 2.58 µM and 1.17 µM |  | 1.89 | 1.95 | 6.4 |  | 2.1 | 2.08 | 0.762 | 0.23
14 | COc1ccc(/C(C#N)=C(/N)SCc2ccccc2Cl)cc1 |  | > 10 µM | > 10 µM | > 10 µM | 48.2 µM | 32.6 µM | 35.8 | 33.7 µM | 63.4 µM |  |  |  |  |  |  |  |  | 
15 | O=C1NN=C(c2ccc([N+](=O)[O-])cc2)C1n1nc(-c2ccccc2)c2ccccc2c1=O (centres undefined) | > 100 µM | > 100 µM | > 100 µM | > 100 µM | > 100 µM | > 100 µM | > 100 | > 100 µM | > 64.4 µM |  |  |  |  |  |  |  |  | 
16 | OC1c2ccccc2C2C(O)c3ccccc3C12 (centres undefined) | > 100 µM | > 100 µM | > 100 µM | > 100 µM | > 100 µM | > 100 µM | > 100 | > 100 µM | > 100 µM |  |  |  |  |  |  |  |  | 
